From patent US5721207A, “Method for treatment of pain” (Innapharma, Inc., priority 1995, dated 1998)
Read-outs that look alike come from different tables or passages of the source.

Key:
[1] = tested on: rat; experiment: Rat hot plate analgesiometric test, dose response of single intrathecal elcatonin (Example 8); type: in vivo
Procedure: The doses tested were 0.2, 0.8, 1.6, 2.4, and 3.6 IU/kg. The desired dose was injected in a volume of 37.5 μL/kg, followed by a catheter wash-out with 10 μL saline, via the intrathecal route.
A total of 113 adult male rats, of weights of 350 g to 400 g, were used. Intrathecal catheters were surgically implanted as described in Example 4.
Data were analyzed for statistical significance, and a point estimate (mean and standard deviation) are used to analyze analgesic activity for each dose of the drug for a selected time period. Nonparametric statistics were calculated to address the level of significance of any difference between control and test group.

[2] = tested on: rat; experiment: Rat hot plate test, 10 single daily intrathecal doses of elcatonin over 11 days (Example 12); type: in vivo; conditions: 4.4 IU/kg intrathecal, 10 daily doses in two 5 day phases (FIG. 8)
Procedure: Intrathecal catheters were implanted in rats as described hereinabove, and a 7-10 day period thereafter allowed for full recovery from the surgical procedures. Nine rats were assigned to three treatment groups of three rats per group. The study is conducted in two 5 day treatment phases separated by a 48 hour nontreatment interval. Treatment Group I rats receive no treatment (sham injection). In each treatment phase, Group II rats received five consecutive daily intrathecal doses of sterile physiological saline (vehicle control), for a total of 10 injections per study treatment.
For each treatment, hot plate latencies are determined as described in Example 5 hereinabove at 0 minutes (predose, baseline), 1 hour, 3 hours, and 24 hours following injection on the 1st, 3rd, 5th, 7th, 9th and 11th study days (Table 4).

[3] = tested on: rat
Procedure: Intrathecal catheters were surgically implanted in the rats after application of anesthetic (Nembutal, 30 mg/kg, intraperitoneal) 5-7 days prior to the test procedure. The 5-7 day period prior to testing allowed for full recovery from the surgical procedures. […] Each catheter was anchored to the skull with cyanoacrylate adhesive, and the skull was closed with wound clips. The free end of each catheter was heat annealed; when compositions were to be injected via the intrathecal route each composition was introduced therein using a Hamilton needle inserted into the sealed catheter.
Pain sensitivity was assessed using a standard analgesiometric hot plate test (Woolfe and MacDonald (1944) J. Pharmacol. Exp. Ther. 80:300). The hot plate response was determined by placing a rat on a 55° C. copper hot plate enclosed in a plexiglass cylinder.
Because of the technical demands of these experiments, no more than 8-9 rats were tested on a given day. Sufficient animals were studied to obtain 10-11 evaluable rats per test condition. On the study day, animals were tested for baseline hot plate responses, and then received bolus injections of test analgesic or physiological saline (control). Hot plate responses were assessed again at 15 min, 30 min, 1 hr, 3 hr, 6 hr and 24 hr after intrathecal injection of test compound or vehicle control.
Ninety-six (96) rats, ranging in weight from 320 g to 420 g, were used in this study. Catheters were implanted and recovery was allowed for as described hereinabove. […] Drug or saline vehicle doses were administered using Hamilton needles inserted into the catheters, with a dose volumes of 37.5 μL/kg followed by a 10 μL saline catheter wash-out. Baseline (pre-drug) and responses at 15 min, 30 min, 1 hr, 3 hr, 6 hr and 24 hr after drug or vehicle injection were determined.

[Des-Cys^1,ASU^7 ]-Calcitonin, Eel [Elcatonin]
antinociceptive response (statistics) ([1]; 0.2 IU/kg intrathecal (lowest dose tested)): did not produce a statistically significant response
Hot Plate Latency (Mean ± SEM) ([1]; 0.2 IU/kg intrathecal single, 0 hr (baseline)): 10.6 ± 0.8 s
Hot Plate Latency (Mean ± SEM) ([1]; 0.2 IU/kg intrathecal single, 0.25 hr after administration): 13.0 ± 1.1 s
Hot Plate Latency (Mean ± SEM) ([1]; 0.2 IU/kg intrathecal single, 0.5 hr after administration): 12.9 ± 0.7 s
Hot Plate Latency (Mean ± SEM) ([1]; 0.2 IU/kg intrathecal single, 1 hr after administration): 12.7 ± 0.9 s
Hot Plate Latency (Mean ± SEM) ([1]; 0.2 IU/kg intrathecal single, 3 hr after administration): 13.1 ± 0.7 s
Hot Plate Latency (Mean ± SEM) ([1]; 0.2 IU/kg intrathecal single, 6 hr after administration): 12.1 ± 0.5 s
Hot Plate Latency (Mean ± SEM) ([1]; 0.2 IU/kg intrathecal single, 24 hr after administration): 10.8 ± 0.7 s
Hot Plate Latency (Mean ± SEM) ([1]; 0.8 IU/kg intrathecal single, 0 hr (baseline)): 9.8 ± 0.8 s
Hot Plate Latency (Mean ± SEM) ([1]; 0.8 IU/kg intrathecal single, 0.25 hr after administration): 15.1 ± 1.5 s
Hot Plate Latency (Mean ± SEM) ([1]; 0.8 IU/kg intrathecal single, 0.5 hr after administration): 15.0 ± 1.5 s
Hot Plate Latency (Mean ± SEM) ([1]; 0.8 IU/kg intrathecal single, 1 hr after administration): 15.2 ± 1.3 s
Hot Plate Latency (Mean ± SEM) ([1]; 0.8 IU/kg intrathecal single, 3 hr after administration): 20.0 ± 2.8 s
Hot Plate Latency (Mean ± SEM) ([1]; 0.8 IU/kg intrathecal single, 6 hr after administration): 12.3 ± 1.0 s
Hot Plate Latency (Mean ± SEM) ([1]; 0.8 IU/kg intrathecal single, 24 hr after administration): 11.7 ± 1.0 s
antinociceptive response (statistics) ([1]; 0.8 and 1.6 IU/kg intrathecal): significant antinociception
Hot Plate Latency (Mean ± SEM) ([1]; 1.6 IU/kg intrathecal single, 0 hr (baseline)): 9.2 ± 0.5 s
Hot Plate Latency (Mean ± SEM) ([1]; 1.6 IU/kg intrathecal single, 0.25 hr after administration): 16.4 ± 1.2 s
Hot Plate Latency (Mean ± SEM) ([1]; 1.6 IU/kg intrathecal single, 0.5 hr after administration): 16.0 ± 1.0 s
Hot Plate Latency (Mean ± SEM) ([1]; 1.6 IU/kg intrathecal single, 1 hr after administration): 16.4 ± 1.1 s
Hot Plate Latency (Mean ± SEM) ([1]; 1.6 IU/kg intrathecal single, 3 hr after administration): 15.1 ± 0.9 s
Hot Plate Latency (Mean ± SEM) ([1]; 1.6 IU/kg intrathecal single, 6 hr after administration): 13.6 ± 0.8 s
Hot Plate Latency (Mean ± SEM) ([1]; 1.6 IU/kg intrathecal single, 24 hr after administration): 10.9 ± 0.4 s
Hot Plate Latency (Mean ± SEM) ([1]; 2.4 IU/kg intrathecal single, 0 hr (baseline)): 9.0 ± 0.7 s
Hot Plate Latency (Mean ± SEM) ([1]; 2.4 IU/kg intrathecal single, 0.25 hr after administration): 20.0 ± 1.5 s
Hot Plate Latency (Mean ± SEM) ([1]; 2.4 IU/kg intrathecal single, 0.5 hr after administration): 20.1 ± 1.9 s
Hot Plate Latency (Mean ± SEM) ([1]; 2.4 IU/kg intrathecal single, 1 hr after administration): 19.5 ± 1.8 s
Hot Plate Latency (Mean ± SEM) ([1]; 2.4 IU/kg intrathecal single, 3 hr after administration): 21.8 ± 2.1 s
Hot Plate Latency (Mean ± SEM) ([1]; 2.4 IU/kg intrathecal single, 6 hr after administration): 12.6 ± 1.2 s
Hot Plate Latency (Mean ± SEM) ([1]; 2.4 IU/kg intrathecal single, 24 hr after administration): 10.3 ± 1.2 s
antinociceptive response (statistics) ([1]; 2.4 and 3.6 IU/kg intrathecal): strong antinociception
Hot Plate Latency (Mean ± SEM) ([1]; 3.6 IU/kg intrathecal single, 0 hr (baseline)): 10.4 ± 0.9 s
Hot Plate Latency (Mean ± SEM) ([1]; 3.6 IU/kg intrathecal single, 0.25 hr after administration): 19.4 ± 1.6 s
Hot Plate Latency (Mean ± SEM) ([1]; 3.6 IU/kg intrathecal single, 0.5 hr after administration): 21.4 ± 1.8 s
Hot Plate Latency (Mean ± SEM) ([1]; 3.6 IU/kg intrathecal single, 1 hr after administration): 23.5 ± 2.5 s
Hot Plate Latency (Mean ± SEM) ([1]; 3.6 IU/kg intrathecal single, 3 hr after administration): 19.5 ± 1.0 s
Hot Plate Latency (Mean ± SEM) ([1]; 3.6 IU/kg intrathecal single, 6 hr after administration): 15.7 ± 1.3 s
Hot Plate Latency (Mean ± SEM) ([1]; 3.6 IU/kg intrathecal single, 24 hr after administration): 10.2 ± 1.0 s
dose relation of hot plate latencies ([1]; intrathecal, 0.2-3.6 IU/kg): increased hot plate latencies in a dose-related fashion
onset of antinociception after injection ([1]; intrathecal, 0.2-3.6 IU/kg): ≤ 15 min
duration of antinociception post-injection ([1]; intrathecal, all doses used): at least 6 hours
time of peak antinociception ([1]; intrathecal, all doses used): 30 to 60 min
hot plate latency by 24 hr post-injection ([1]; intrathecal, most tests): returned to baseline
antinociception at 6 hrs after injection ([1]; intrathecal, three higher doses): Significant antinociception was also apparent
antinociceptive results, intrathecal compared with intravenous ([1]; rat hot plate): unexpectedly improved antinociceptive results as compared with intravenous injection
analgesic effect over time [2]: cumulative analgesic effect over time
hot plate latency [2]: hot plate latency is increased
Hot Plate Latency (Mean ± SEM) ([3]; 2.4 IU/kg (0.39 μg/kg, 0.12 nmol/kg) intrathecal single, 0 hr (baseline)): 13.54 ± 1.91 s
Hot Plate Latency (Mean ± SEM) ([3]; 2.4 IU/kg (0.39 μg/kg, 0.12 nmol/kg) intrathecal single, 0.25 hr): 19.70 ± 1.75 s
Hot Plate Latency (Mean ± SEM) ([3]; 2.4 IU/kg (0.39 μg/kg, 0.12 nmol/kg) intrathecal single, 0.5 hr): 23.90 ± 3.12 s
Hot Plate Latency (Mean ± SEM) ([3]; 2.4 IU/kg (0.39 μg/kg, 0.12 nmol/kg) intrathecal single, 1 hr): 24.68 ± 1.80 s
Hot Plate Latency (Mean ± SEM) ([3]; 2.4 IU/kg (0.39 μg/kg, 0.12 nmol/kg) intrathecal single, 3 hr): 13.0 ± 0.7 s
Hot Plate Latency (Mean ± SEM) ([3]; 2.4 IU/kg (0.39 μg/kg, 0.12 nmol/kg) intrathecal single, 6 hr): 12.1 s
Hot Plate Latency (Mean ± SEM) ([3]; 2.4 IU/kg (0.39 μg/kg, 0.12 nmol/kg) intrathecal single, 24 hr): 10.8 ± 0.7 s
response at the lowest dose ([3]; 2.4 IU/kg or 0.39 μg/kg intrathecal): slightly smaller response
differences in hot plate latencies between doses ([3]; 3.6-6.0 IU/kg intrathecal): no apparent differences in hot plate latencies
Hot Plate Latency (Mean ± SEM) ([3]; 3.6 IU/kg (0.58 μg/kg, 0.18 nmol/kg) intrathecal single, 0 hr (baseline)): 12.92 ± 1.4 s
Hot Plate Latency (Mean ± SEM) ([3]; 3.6 IU/kg (0.58 μg/kg, 0.18 nmol/kg) intrathecal single, 0.25 hr): 21.04 ± 2.22 s
Hot Plate Latency (Mean ± SEM) ([3]; 3.6 IU/kg (0.58 μg/kg, 0.18 nmol/kg) intrathecal single, 0.5 hr): 26.03 ± 3.08 s
Hot Plate Latency (Mean ± SEM) ([3]; 3.6 IU/kg (0.58 μg/kg, 0.18 nmol/kg) intrathecal single, 1 hr): 26.08 ± 3.69 s
Hot Plate Latency (Mean ± SEM) ([3]; 3.6 IU/kg (0.58 μg/kg, 0.18 nmol/kg) intrathecal single, 3 hr): 23.14 ± 3.05 s
Hot Plate Latency (Mean ± SEM) ([3]; 3.6 IU/kg (0.58 μg/kg, 0.18 nmol/kg) intrathecal single, 6 hr): 20.37 s
